Experimental data published in PubChem BioAssay (NCI).
Several values for one entry are separate records, joined by “and”; a condition that tells them apart may be missing. Equal entries are not always repeated.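 Tested at 5 concentrations; 48 h exposure; 96-well plates; endpoints linearly interpolated, else capped at highest concentration. The concentration for 50% growth inhibition is given as GI50. At the TGI there is no net growth.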 Where a SMILES comes first, the peptide text is derived from it. The star is where a group is joined. Boc = CC(C)(C)OC(=O)*

Tests used:
Test in all cases: NCI-60 cell line screen, 48 h
BT-549 breast = system: BT-549 breast
CAKI-1 renal = system: CAKI-1 renal
KM12 colon = system: KM12 colon
MALME-3M melanoma = system: MALME-3M melanoma
OVCAR-4 ovarian = system: OVCAR-4 ovarian
SF-268 CNS = system: SF-268 CNS
SK-MEL-5 melanoma = system: SK-MEL-5 melanoma
T-47D breast = system: T-47D breast
TK-10 renal = system: TK-10 renal
UO-31 renal = system: UO-31 renal

| SMILES | GI50 (BT-549 breast) | TGI (BT-549 breast) | GI50 (CAKI-1 renal) | TGI (CAKI-1 renal) | GI50 (KM12 colon) | TGI (KM12 colon) | GI50 (MALME-3M melanoma) | TGI (MALME-3M melanoma) | GI50 (OVCAR-4 ovarian) | TGI (OVCAR-4 ovarian) | GI50 (SF-268 CNS) | TGI (SF-268 CNS) | GI50 (SK-MEL-5 melanoma) | TGI (SK-MEL-5 melanoma) | GI50 (T-47D breast) | TGI (T-47D breast) | GI50 (TK-10 renal) | TGI (TK-10 renal) | GI50 (UO-31 renal) | TGI (UO-31 renal) |
| --- | --- | --- | --- | --- | --- | --- | --- | --- | --- | --- | --- | --- | --- | --- | --- | --- | --- | --- | --- | --- |
| CC1(C)N=C(N)N=C(N)N1c1ccc(CCCCc2ccc(Cl)c(S(=O)(=O)F)c2)c(Cl)c1 | 1.55 µM | 12.5 µM | 1.82 µM | 10.5 µM | 1.36 µM | 7.81 µM | 2.36 µM | 12.5 µM | 4.51 µM | 49.7 µM | 0.509 µM | 15.9 µM | 0.471 µM | 11.8 µM | 3.11 µM | 15.1 µM | 12.3 µM | 48.8 µM | 8.2 µM | 28.5 µM |
| C[C@H](Nc1cc(Cl)nc2c1cnn2[C@@H]1O[C@H](COP(=O)(O)CP(=O)(O)O)[C@@H](O)[C@H]1O)c1ccccc1F | > 100 µM | > 100 µM | > 100 µM | > 100 µM | > 100 µM | > 100 µM | > 100 µM | > 100 µM | > 100 µM | > 100 µM | > 100 µM | > 100 µM | > 100 µM | > 100 µM | > 100 µM | > 100 µM | > 100 µM | > 100 µM | > 100 µM | > 100 µM |
| C#Cc1nc(Nc2cc(C)[nH]n2)c2ccccc2n1 | 0.233 µM | 0.475 µM | 0.442 µM | 2.02 µM | 0.232 µM | 0.503 µM | 0.295 µM | 0.915 µM | 0.347 µM |  | 0.313 µM | 1.11 µM | 0.139 µM | 0.28 µM | 0.39 µM | 2.11 µM | 0.427 µM | 2.91 µM | 0.222 µM | 0.792 µM |
| COC(=O)C(C)NC(=O)C(CCSC)NC(=O)C(Cc1ccccc1)NC(=O)OC(C)(C)C (stereo not drawn) (Boc-Phe-Met-Ala-OMe; configuration not given here) | 18.3 µg/mL | > 100 µM |  | > 100 µM | 22.4 µg/mL | 51.1 µg/mL and > 100 µM |  | > 100 µM |  | > 100 µM | 42.3 µg/mL | > 100 µM |  | > 100 µM |  | > 100 µM | 4.41 µg/mL |  |  | > 100 µM |
| CN1CC[C@@H](c2c(O)cc(O)c3c(=O)cc(-c4ccc(C(F)(F)F)cc4Cl)oc23)[C@@H]1CO | 12.2 µM | 25.9 µM | 14.7 µM | 39.8 µM | 13.7 µM | 30.4 µM | 18.4 µM | 36.9 µM | 23.6 µM | 83.2 µM | 15.2 µM | 39.6 µM | 15.4 µM | 30.7 µM | 14.5 µM | 50.4 µM | 14.7 µM | 43.5 µM | 11 µM | 37.8 µM |
| C=CCc1ccc(O)c(-c2ccc(O)c(CC=C)c2)c1 | 13.2 µM | 27.5 µM | 14.1 µM | 29.4 µM | 13.6 µM | 34 µM | 17.1 µM | 34.9 µM | 15.5 µM | 35.8 µM | 10.8 µM | 28 µM | 10.8 µM | 23.4 µM | 20.3 µM | > 53.9 µM | 16 µM | 33.9 µM | 12.4 µM | 27.3 µM |
